How the values were obtained:
KDM5A [1] = target: T1, KDM5A (Homo sapiens, UniProt P29375); assay: AlphaScreen in vitro demethylase assay; format: biochemical; conditions: IC50 ± SD (number of replicates)
Protocol: IC50 values were determined as previously described. The following amendments were made to the protocol for carrying out 2-OG competition assays.

KDM5A [2] = target: T1, KDM5A; assay: High-content immunofluorescence (IF) assay, overexpressed full-length FLAG-tagged KDM in HeLa cells; format: cell-based; conditions: HeLa cells overexpressing WT KDM5A, H3K4me3 mark, 24 h; for EC50: read-out: KDM5A, in cells, EC50 by IF assay (head: IC50)
Protocol: On day 0, 7000 cells per well were plated on a 96-well clear bottom CellCarrier plate (PerkinElmer, UK). The next day the cells were transfected with Lipofectamine 3000 (ThermoFisher Scientific, UK) following the manufacturer’s instructions. Briefly, 0.1 µg of plasmid DNA (encoding for the respective demethylase) and 0.15 µL of Lipofectamine 3000 were diluted in separate tubes containing 5 µL OptiMEM. 0.15 µL of P3000 was added to the tube with the DNA. The two solutions were then mixed gently and allowed to incubate for 5 min at room temperature. Next, the DNA-lipid complex was added to the cells for 4 h at 37 °C and 5% CO2. Compound dilutions were made in a 96-well PCR plate (Starlab, UK). The culture medium was supplemented with 0.4% DMSO so that the solvent concentration was maintained throughout. Compounds were serially diluted at a 1:2 or 1:3 dilution ratio. Next, the cell culture plate was removed from the incubator and the medium was gently aspirated and replaced with the fresh medium containing diluted compounds.

[3] = tested on: endogenous KDMs (H3K4me3 mark); assay: Endogenous IF assay, H3K4me3 in nontransfected HeLa cells; format: cell-based, human; conditions: 72 h, IF staining
Protocol: The experimental set-up was similar to the 24-h assay except for the following modifications. Cells were cultured in OptiMEM (LifeTechnologies, UK) and supplemented with 0.5% foetal calf serum (FCS) (Gibco, UK) and 1% L-glutaMAX (Gibco, UK). HeLa cells were seeded at a density of 800 cells per well on day 0. The next day, a compound dilution plate (diluted in OptiMEM with supplements) was made and the medium from the day before replaced. The cells were incubated for 72 h at 37 °C and 5% CO2. After fixation, the immunofluorescence protocol was similar as the 24-h assay with the omission of the FLAG-tag antibodies (Table 2).

[4] = tested on: Caco-2 human colon carcinoma cell line; assay: Caco-2 permeability; format: in vitro ADME; conditions: P app
Protocol: P app (apparent permeability) was determined in the Caco-2 human colon carcinoma cell line essentially as described in [11].

KDM4B = target: T2, KDM4B (Homo sapiens, UniProt O94953); assay: High-content immunofluorescence (IF) assay, overexpressed full-length FLAG-tagged KDM in HeLa cells; format: cell-based; conditions: HeLa cells overexpressing WT KDM4B, H3K9me3 mark, 24 h; read-out: KDM4B, in cells, EC50 by IF assay (head: IC50)
T2 sequence (O94953 1-1096): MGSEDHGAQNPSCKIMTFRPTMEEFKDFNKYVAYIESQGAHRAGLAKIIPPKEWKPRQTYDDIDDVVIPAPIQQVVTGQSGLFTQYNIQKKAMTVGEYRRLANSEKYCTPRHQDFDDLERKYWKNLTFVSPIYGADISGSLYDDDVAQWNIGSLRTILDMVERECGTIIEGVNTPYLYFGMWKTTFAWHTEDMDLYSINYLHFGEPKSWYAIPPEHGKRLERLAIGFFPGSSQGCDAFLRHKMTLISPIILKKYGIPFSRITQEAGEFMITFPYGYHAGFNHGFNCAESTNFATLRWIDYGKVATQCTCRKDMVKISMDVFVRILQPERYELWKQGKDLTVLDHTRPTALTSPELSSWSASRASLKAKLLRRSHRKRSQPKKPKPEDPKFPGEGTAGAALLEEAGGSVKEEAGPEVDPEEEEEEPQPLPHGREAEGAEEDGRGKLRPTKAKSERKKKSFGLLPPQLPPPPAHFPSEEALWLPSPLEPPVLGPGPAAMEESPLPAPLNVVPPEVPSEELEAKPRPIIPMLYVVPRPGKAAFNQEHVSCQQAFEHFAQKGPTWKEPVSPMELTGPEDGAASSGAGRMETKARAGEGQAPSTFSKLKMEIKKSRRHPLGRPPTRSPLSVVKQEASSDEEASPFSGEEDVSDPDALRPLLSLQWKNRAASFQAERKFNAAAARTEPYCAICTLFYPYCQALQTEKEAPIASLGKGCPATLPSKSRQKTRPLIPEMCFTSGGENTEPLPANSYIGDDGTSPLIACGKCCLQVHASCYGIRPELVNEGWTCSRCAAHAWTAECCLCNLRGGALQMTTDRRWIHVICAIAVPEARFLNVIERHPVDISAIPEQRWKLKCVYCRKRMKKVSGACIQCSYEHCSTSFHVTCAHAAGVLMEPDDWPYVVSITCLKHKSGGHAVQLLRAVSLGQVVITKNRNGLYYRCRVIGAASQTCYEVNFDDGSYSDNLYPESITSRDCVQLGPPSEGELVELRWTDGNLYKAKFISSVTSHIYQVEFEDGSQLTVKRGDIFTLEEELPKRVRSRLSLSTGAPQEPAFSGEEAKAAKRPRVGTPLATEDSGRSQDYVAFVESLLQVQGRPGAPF
Protocol: HeLa cells (ATCC) were cultured at 37 °C and 5% CO2 in Minimal Essential Media—Eagle (Sigma-Aldrich, UK) supplemented with 10% heat-inactivated foetal calf serum (FCS) (Gibco, UK), and 1% L-glutaMAX (Gibco, UK) in T75 flasks (Sarstedt, UK) and passaged regularly with TrypLE (Life Technologies, UK) before cells reached confluence. On day 0, 7000 cells per well were plated on a 96-well clear bottom CellCarrier plate (PerkinElmer, UK). The next day the cells were transfected with Lipofectamine 3000 (ThermoFisher Scientific, UK) following the manufacturer’s instructions. Briefly, 0.1 µg of plasmid DNA (encoding for the respective demethylase) and 0.15 µL of Lipofectamine 3000 were diluted in separate tubes containing 5 µL OptiMEM. 0.15 µL of P3000 was added to the tube with the DNA. The two solutions were then mixed gently and allowed to incubate for 5 min at room temperature. Next, the DNA-lipid complex was added to the cells for 4 h at 37 °C and 5% CO2.
Compound dilutions were made in a 96-well PCR plate (Starlab, UK). The culture medium was supplemented with 0.4% DMSO so that the solvent concentration was maintained throughout. Compounds were serially diluted at a 1:2 or 1:3 dilution ratio. Next, the cell culture plate was removed from the incubator and the medium was gently aspirated and replaced with the fresh medium containing diluted compounds.
Then cells were rinsed once with PBS and blocked for 30 min at room temperature using 3% v/v foetal calf serum diluted in PBS.

T1 sequence (P29375 whole entry): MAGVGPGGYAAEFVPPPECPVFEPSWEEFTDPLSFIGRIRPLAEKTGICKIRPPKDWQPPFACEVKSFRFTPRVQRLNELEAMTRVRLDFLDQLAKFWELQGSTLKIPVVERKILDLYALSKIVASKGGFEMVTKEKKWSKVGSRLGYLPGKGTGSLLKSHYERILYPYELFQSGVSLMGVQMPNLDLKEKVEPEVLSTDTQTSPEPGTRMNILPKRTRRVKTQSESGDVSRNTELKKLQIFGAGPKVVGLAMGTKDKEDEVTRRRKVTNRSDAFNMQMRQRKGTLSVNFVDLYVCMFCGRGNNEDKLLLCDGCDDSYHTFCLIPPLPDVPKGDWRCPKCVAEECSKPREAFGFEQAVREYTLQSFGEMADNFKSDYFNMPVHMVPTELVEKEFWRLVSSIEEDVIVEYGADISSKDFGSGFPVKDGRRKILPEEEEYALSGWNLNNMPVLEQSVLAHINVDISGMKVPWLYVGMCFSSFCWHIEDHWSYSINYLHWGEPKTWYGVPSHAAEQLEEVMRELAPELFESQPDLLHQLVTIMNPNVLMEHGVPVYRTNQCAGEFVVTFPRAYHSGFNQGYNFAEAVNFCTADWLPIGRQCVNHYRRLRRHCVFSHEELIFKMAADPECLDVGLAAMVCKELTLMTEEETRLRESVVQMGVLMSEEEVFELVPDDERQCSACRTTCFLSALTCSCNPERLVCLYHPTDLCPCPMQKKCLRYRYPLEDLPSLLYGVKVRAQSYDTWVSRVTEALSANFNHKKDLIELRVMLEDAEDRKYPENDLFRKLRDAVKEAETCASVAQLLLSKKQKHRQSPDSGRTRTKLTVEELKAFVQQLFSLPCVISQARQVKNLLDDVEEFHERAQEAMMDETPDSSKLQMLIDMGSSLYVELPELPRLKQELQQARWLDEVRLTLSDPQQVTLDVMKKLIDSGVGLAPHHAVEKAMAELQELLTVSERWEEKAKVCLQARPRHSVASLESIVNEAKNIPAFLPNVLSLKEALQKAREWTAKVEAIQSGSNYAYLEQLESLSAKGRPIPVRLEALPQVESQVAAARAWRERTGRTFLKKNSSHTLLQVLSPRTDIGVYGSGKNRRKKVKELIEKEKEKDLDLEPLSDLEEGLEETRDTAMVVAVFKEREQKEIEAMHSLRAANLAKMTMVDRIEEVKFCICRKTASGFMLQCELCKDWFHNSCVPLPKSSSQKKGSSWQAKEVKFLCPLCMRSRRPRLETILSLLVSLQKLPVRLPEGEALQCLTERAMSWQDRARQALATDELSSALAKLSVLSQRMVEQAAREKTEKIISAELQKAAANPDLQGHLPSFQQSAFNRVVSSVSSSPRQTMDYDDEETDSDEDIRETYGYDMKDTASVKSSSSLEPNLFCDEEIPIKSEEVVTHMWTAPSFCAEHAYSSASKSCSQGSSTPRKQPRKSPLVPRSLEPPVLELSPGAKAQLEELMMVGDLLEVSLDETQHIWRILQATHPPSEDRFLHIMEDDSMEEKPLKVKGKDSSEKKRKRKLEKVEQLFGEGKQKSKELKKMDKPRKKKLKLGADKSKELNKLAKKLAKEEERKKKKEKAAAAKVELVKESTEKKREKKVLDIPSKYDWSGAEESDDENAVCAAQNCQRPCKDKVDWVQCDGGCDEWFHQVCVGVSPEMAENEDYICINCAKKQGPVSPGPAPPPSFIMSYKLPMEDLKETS

| Compound | IC50 (KDM5A [1]) | KDM5A, in cells, EC50 by IF assay (head: IC50) (KDM5A [2]) | EC50 ([3]; read-out: EC50, endogenous H3K4me3 levels) | Caco-2 (A to B flux) [4] | EC50 (KDM5A [2]) | EC50, endogenous H3K4me3 levels [3] | EC50 (KDM4B) |
| --- | --- | --- | --- | --- | --- | --- | --- |
| CCN(CCN(C)C)C(=O)CNCc1cc(C(=O)O)ccn1 [KDOAM-20] | 0.01 ± 0.003 µM | little inhibition | ~50 µM |  |  |  |  |
| CCOC(=O)c1ccnc(CNCC(=O)N(CC)CCN(C)C)c1 [KDOAM-21] | 0.068 ± 0.01 µM |  |  | 5.32e-06 cm/s | 4.8 µM | sub-μM potency | 10 µM |
| CPI-455 |  |  |  | 5.21e-06 cm/s |  |  |  |
| CCN(CCN(C)C)C(=O)CNCc1cncc(C(N)=O)c1 [KDOAM-32] |  |  |  |  | > 100 µM | no inhibition observed | > 100 µM |

Reference: article PMC5333395, “Assessing histone demethylase inhibitors in cells: lessons learned” (Epigenetics & Chromatin, 2017)
